Laboratory results taken from US20240270741A1 (Cogent Biosciences, Inc., priority 2023, published 2024).
pIC50: −log10 of the molar value.

Biological target: FGFR2 (Homo sapiens, UniProt P21802)
Assay: FGFR wild type enzyme assay (HTRF KinEASE-TK), FGFR2
Conditions: Enz FGFR2 (nM), FGFR2 wild type enzyme assay

FGFR2, sequence (P21802 399-821 limits assumed): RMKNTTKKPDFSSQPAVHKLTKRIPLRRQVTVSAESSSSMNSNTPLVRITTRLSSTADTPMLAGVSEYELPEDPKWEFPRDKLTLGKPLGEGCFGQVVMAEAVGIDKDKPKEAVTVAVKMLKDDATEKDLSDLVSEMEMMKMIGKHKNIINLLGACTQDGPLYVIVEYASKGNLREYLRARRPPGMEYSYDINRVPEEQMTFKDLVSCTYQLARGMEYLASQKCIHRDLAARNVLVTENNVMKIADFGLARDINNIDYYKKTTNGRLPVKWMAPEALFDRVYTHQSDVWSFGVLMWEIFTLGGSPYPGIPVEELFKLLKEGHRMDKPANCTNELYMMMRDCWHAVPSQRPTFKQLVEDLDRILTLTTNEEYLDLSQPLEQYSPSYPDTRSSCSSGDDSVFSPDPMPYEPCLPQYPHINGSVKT

Row | SMILES | IC50 [nM]
1 | N#Cc1cc(F)ccc1Sc1cc(-c2ccc(N3CCC(O)CC3)nc2)cn2ncc(C#N)c12 [Example 586, 4-((2-cyano-4-fluorophenyl)thio)-6-(6-(4-hydroxypiperidin-1-yl)pyridin-3-yl)pyrazolo[1,5-a]pyridine-3-carbonitrile] | 1
2 | Cn1ccc(-c2cc(Sc3ccc(F)cc3C#N)c3c(C#N)cnn3c2)cc1=O [Example 587, 4-((2-cyano-4-fluorophenyl)thio)-6-(1-methyl-2-oxo-1,2-dihydropyridin-4-yl)pyrazolo[1,5-a]pyridine-3-carbonitrile] | 43
3 | N#Cc1ccccc1Sc1cc(-c2cnn(CC(F)(F)F)c2)cn2ncc(C#N)c12 [Example 588] | 2
4 | Cc1c(-c2cc(Sc3ccccc3C#N)c3c(C#N)cnn3c2)cnn1C1CCN(C(=O)C(C)(C)O)CC1 [Example 589, 4-((2-cyanophenyl)thio)-6-(1-(1-(2-hydroxy-2-methylpropanoyl)piperidin-4-yl)-5-methyl-1H-pyrazol-4-yl)pyrazolo[1,5-a]pyridine-3-carbonitrile] | 1
5 | N#Cc1cc(F)ccc1Sc1cc(-c2ccc(N3CCNCC3)nc2)cn2ncc(C#N)c12 [Example 595, 4-((2-cyano-4-fluorophenyl)thio)-6-(6-(piperazin-1-yl)pyridin-3-yl)pyrazolo[1,5-a]pyridine-3-carbonitrile] | 15
6 | CN(CC(O)CO)c1ccc(-c2cc(Sc3ccc(F)cc3C#N)c3c(C#N)cnn3c2)cn1 (stereo not drawn) [Example 596, 4-((2-cyano-4-fluorophenyl)thio)-6-(6-((2,3-dihydroxypropyl)(methyl)amino)pyridin-3-yl)pyrazolo[1,5-a]pyridine-3-carbonitrile] | 1
7 | Cc1cccc(C#N)c1Sc1cc(-c2cnn(C)c2)cn2ncc(C#N)c12 [Example 597, 4-((2-cyano-6-methylphenyl)thio)-6-(1-methyl-1H-pyrazol-4-yl)pyrazolo[1,5-a]pryidine-3-carbonitrile] | 30
8 | CN(C)CCn1cc(-c2cc(Sc3ccccc3C#N)c3c(C#N)cnn3c2)cn1 [Example 598, 4-((2-cyanophenyl)thio)-6-(1-(2-(dimethylamino)ethyl)-1H-pyrazol-4-yl)pyrazolo[1,5-a]pryidine-3-carbontrile] | 1
9 | CC(=O)N1CCN(c2nnc(-c3cc(Sc4ccccc4C#N)c4c(C#N)cnn4c3)s2)CC1 [Example 600, 6-(5-(4-acetylpiperazin-1-y)-1,3,4-thiadiazol-2-yl)-4-((2-cyanophenyl)thio)pyrazolo [1,5-a]pyridine-3-carbonitrile] | 6
10 | CC(=O)N1CCN(c2ncc(-c3cc(Sc4ccccc4C#N)c4c(C#N)cnn4c3)o2)CC1 [Example 601, 6-(2-(4-acetylpiperazin-1-yl)oxazol-5-yl)-4-((2-cyanophenyl)thio)pyrazolo [1,5-a]pyridine-3-carbonitrile] | 53
11 | C[C@@H](O)C(=O)N1CC[C@@H](n2cc(-c3cc(Sc4ccccc4C#N)c4c(C#N)cnn4c3)cn2)C1 [Example 605, 4-((2-cyanophenyl)thio)-6-(1-((R)-1-((R)-2-hydroxypropanoyl)pyrroli-din-3-yl)-1H-pyrazol-4-yl)pyrazolo[1,5-a]pyridine-3-carbonitrile] | 0.6
12 | C[C@H](O)C(=O)N1CC[C@@H](n2cc(-c3cc(Sc4ccccc4C#N)c4c(C#N)cnn4c3)cn2)C1 [Example 606, 4-((2-cyanophenyl)thio)-6-(1-((R)-1-((S)-2-hydroxypropanoyl)pyrrolidin-3-yl)-1H-pyrazol-4-y)pyrazolo[1,5-a]pyridine-3-carbonitrile] | 0.5
13 | N#Cc1ccccc1Sc1cc(-c2cnn(C(F)(F)F)c2)cn2ncc(C#N)c12 [Example 607, 4-((2-cyanophenyl)thio)-6-(1-(trifluoromethyl)-1H-pyrazol-4-yl)pyrazolo[1,5-a]pyridine-3-carbonitrile] | 10
14 | Cn1ncc(-c2cc(Sc3ccccc3C#N)c3c(C#N)cnn3c2)c1N [Example 608, 6-(5-amino-1-methyl-1H-pyrazol-4-yl)-4-((2-cyanophenyl)thio)pyrazolo [1,5-a]pyridine-3-carbonitrile] | 2
15 | N#Cc1ccccc1Sc1cc(-c2cnn(-c3cn[nH]c3)c2)cn2ncc(C#N)c12 [Example 609, 6-(1′H-[1,4′-bipyrazol]-4-yl)-4-((2-cyanophenyl)thio)pyrazolo [1,5-a]pyridine-3-carbonitrile] | 4

Second part, the compound after the results:

Row | IC50 [nM] | SMILES
16 | 0.5 | C[C@@H](O)C(=O)N1CCC[C@H](n2cc(-c3cc(Sc4ccccc4C#N)c4c(C#N)cnn4c3)cn2)C1 [Example 590, 4-((2-cyanophenyl)thio)-6-(1-((S)-1-((R)-2-hydroxypropanoyl)piperidin-3-yl)-1H-pyrazol-4-yl)pyrazolo[1,5-a]pyridine-3-carbonitrile]
17 | 0.4 | N#Cc1ccccc1Sc1cc(-c2cnn([C@@H]3CCNC(=O)C3)c2)cn2ncc(C#N)c12 [Example 591, (R)-4-((2-cyanophenyl)thio)-6-(1-(2-oxopiperidin-4-yl)-1H-pyrazol-4-yl)pyrazolo[1,5-a]pyridine-3-carbonitrile]
18 | 1 | N#Cc1ccccc1Sc1cc(-c2cnn([C@H]3CCNC(=O)C3)c2)cn2ncc(C#N)c12 [Example 592, (S)-4-((2-cyanophenyl)thio)-6-(1-(2-oxopiperidin-4-yl)-1H-pyrazol-4-yl)pyrazolo[1,5-a]pyridine-3-carbonitrile]
19 | 1 | CC1(C)CC[C@H](n2cc(-c3cc(Sc4ccccc4C#N)c4c(C#N)cnn4c3)cn2)CN1 [Example 593, (S)-4-((2-cyanophenyl)thio)-6-(1-(6,6-dimethylpiperidin-3-yl)-1H-pyrazol-4-yl)pyrazolo[1,5-a]pyridine-3-carbonitrile]
20 | 1 | CC1(C)CC[C@@H](n2cc(-c3cc(Sc4ccccc4C#N)c4c(C#N)cnn4c3)cn2)CN1 [Example 594, (R)-4-((2-cyanophenyl)thio)-6-(1-(6,6-dimethylpiperidin-3-yl)-1H-pyrazol-4-yl)pyrazolo[1,5-a]pyridine-3-carbonitrile]
21 | 2 | N#Cc1ccccc1Sc1cc(-c2cnn([C@H]3CCCC[C@H]3O)c2)cn2ncc(C#N)c12 [Example 599, 4-((2-cyanophenyl)thio)-6-(1-((1S,2R)-2-hydroxycyclohexyl)-1H-pyrazol-4-yl)pyrazolo[1,5-a]pyridine-3-carbonitrile]
22 | 0.6 | N#Cc1ccccc1Sc1cc(-c2cnn([C@@H]3CCN(CCO)C3)c2)cn2ncc(C#N)c12 [Example 603, (R)-4-((2-cyanophenyl)thio)-6-(1-(1-(2-hydroxyethyl)pyrrolidin-3-yl)-1H-pyrazol-4-yl)pyrazolo[1,5-a]pyridine-3-carbonitrile]
23 | 0.5 | CN1CC[C@@H](n2cc(-c3cc(Sc4ccccc4C#N)c4c(C#N)cnn4c3)cn2)C1 [Example 604, (R)-4-((2-cyanophenyl)thio)-6-(1-(1-methylpyrrolidin-3-yl)-1H-pyrazol-4-yl)pyrazolo[1,5-a]pyridine-3-carbonitrile]

Same assay, conditions: read-out: Enz FGFR2; FGFR2 wild type enzyme assay

Row | pIC50 | SMILES
24 | 8.70 | CC(=O)O[C@H]1CC[C@H](n2ncc(-c3cc(Sc4ccc(F)cc4C#N)c4c(C#N)cnn4c3)c2C)CC1 [Example 602, (1r,4r)-4-(4-(3-cyano-4-((2-cyano-4-fluorophenyl)thhio)pyrazolo [1,5-a]pyridin-6-yl)-5-methyl-1H-pyrazol-1-yl)cyclohexyl acetate]
